Patent US9234000B2, “Benzylamine derivatives as inhibitors of plasma kallikrein” (KalVista Pharmaceuticals Limited, priority 2011, dated 2016)
Read-outs that look alike come from different tables or passages of the source.

Key:
[1] = molecular target: Human KLK1 (Homo sapiens (Human), UniProt P06870); test: Determination of the IC50 for KLK1; assay type: biochemical; details: Human KLK1, 37° C., substrate H-DVal-Leu-Arg-AFC
Protocol: Determination of the IC50 for KLK1
(§1) KLK1 inhibitory activity in vitro was determined using standard published methods (see e.g. Johansen et al., Int. J. Tiss. Reac. 1986, 8, 185; Shori et al., Biochem. Pharmacol., 1992, 43, 1209; Stürzebecher et al., Biol. Chem. Hoppe-Seyler, 1992, 373, 1025). Human KLK1 (Callbiochem) was incubated at 37° C. with the fluorogenic substrate H-DVal-Leu-Arg-AFC and various concentrations of the test compound. Residual enzyme activity (initial rate of reaction) was determined by measuring the change in optical absorbance at 410 nm and the IC50 value for the test compound was determined.

[2] = molecular target: Human plasma kallikrein (Homo sapiens (Human), UniProt P03952); test: Determination of the IC50 for plasma kallikrein; assay type: biochemical; details: 37° C., read-out: IC50 (human PKal)
Chain of Human plasma kallikrein (P03952 391-638): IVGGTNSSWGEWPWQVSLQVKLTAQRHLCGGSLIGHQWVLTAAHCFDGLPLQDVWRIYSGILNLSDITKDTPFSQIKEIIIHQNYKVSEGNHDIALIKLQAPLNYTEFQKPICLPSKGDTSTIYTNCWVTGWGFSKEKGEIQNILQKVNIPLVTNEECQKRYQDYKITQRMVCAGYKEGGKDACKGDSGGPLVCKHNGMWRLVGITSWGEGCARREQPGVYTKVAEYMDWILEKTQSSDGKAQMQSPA
Chain of Human plasma kallikrein (P03952 20-390 partner): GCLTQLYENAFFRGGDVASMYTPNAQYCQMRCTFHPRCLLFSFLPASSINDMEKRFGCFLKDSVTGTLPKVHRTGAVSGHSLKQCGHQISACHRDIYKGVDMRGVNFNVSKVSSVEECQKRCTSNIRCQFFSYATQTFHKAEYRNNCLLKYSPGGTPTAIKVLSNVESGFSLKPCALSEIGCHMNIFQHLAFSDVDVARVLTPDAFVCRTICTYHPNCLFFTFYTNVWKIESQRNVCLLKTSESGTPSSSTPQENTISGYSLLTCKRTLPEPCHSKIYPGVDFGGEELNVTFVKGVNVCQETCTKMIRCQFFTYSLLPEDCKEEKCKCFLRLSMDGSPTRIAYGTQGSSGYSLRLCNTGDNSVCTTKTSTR
Protocol: Determination of the IC50 for Plasma Kallikrein
as §1, with “Plasma kallikrein” for “KLK1”, “Stiirzebecher” for “Stürzebecher”, “plasma kallikrein (Protogen)” for “KLK1 (Callbiochem)”, “H-DPro-Phe-Arg-AFC” for “H-DVal-Leu-Arg-AFC”

[3] = fluorogenic substrate H-DPro-Phe-Arg-AFC

Chain of Human KLK1 (P06870 25-262): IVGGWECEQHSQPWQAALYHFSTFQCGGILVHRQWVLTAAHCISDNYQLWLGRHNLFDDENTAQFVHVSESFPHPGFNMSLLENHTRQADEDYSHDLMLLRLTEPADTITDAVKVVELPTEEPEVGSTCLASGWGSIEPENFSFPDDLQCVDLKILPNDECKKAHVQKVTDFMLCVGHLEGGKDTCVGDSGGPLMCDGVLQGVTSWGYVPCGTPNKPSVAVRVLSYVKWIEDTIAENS

Row | IC50 ([1]; Table 12) [µM] | IC50 [2, 3] [µM] | IC50 ([1]; Table 13) [µM] | IC50 ([2]; substrate H-DPro-Phe-Arg-AFC) [µM] | SMILES
1 | > 1 | 0.074 | – | – | CCOc1ccc(C[C@@H](NC(=O)CC)C(=O)N[C@@H](Cc2ccccc2)C(=O)NCc2ccc(CN)c(F)c2)cc1 [Example 7, (S)-N-(4-Aminomethyl-3-fluoro-benzyl)-2-[(R)-3-(4-ethoxy-phenyl)-2-propionylamino-propionylamino]-3-phenyl-propionamide]
2 | – | 10 | – | – | CCOc1ccc(C[C@H](C(=O)N[C@@H](Cc2ccccc2)C(=O)NCc2ccc(CN)cc2)N(C)C)cc1 [Example 13, (R)-N-[(S)-1-(4-Aminomethyl-benzylcarbamoyl)-2-phenyl-ethyl]-2-dimethylamino-3-(4-ethoxy-phenyl)-propionamide]
3 | 4.9 | 0.053 | – | – | CCOc1ccc(C[C@@H](NC(=O)CC)C(=O)N[C@@H](Cc2ccc(Cl)c(Cl)c2)C(=O)NCc2ccc(CN)cc2)cc1 [Example 16, (S)-N-(4-Aminomethyl-benzyl)-3-(3,4-dichloro-phenyl)-2-[(R)-3-(4-ethoxy-phenyl)-2-propionylamino-propionylamino]-propionamide]
4 | 9.6 | 10 | – | – | C[C@@H](NC(=O)c1ccccc1)C(=O)N[C@@H](Cc1ccccc1)C(=O)NCc1ccc(CN)cc1 [Example 22, N-{(R)-1-[(S)-1-(4-Aminomethyl-benzylcarbamoyl)-2-phenyl-ethylcarbamoyl]-ethyl}-benzamide]
5 | 5.6 | 0.031 | – | – | CCOc1ccc(C[C@@H](NC(=O)CC)C(=O)N[C@@H](Cc2ccccc2)C(=O)NCc2ccc(CN)c(Cl)c2)cc1 [Example 23, (S)-N-(4-Aminomethyl-3-chloro-benzyl)-2-[(R)-3-(4-ethoxy-phenyl)-2-propionylamino-propionylamino]-3-phenyl-propionamide]
6 | > 10 | 8.9 | – | – | CC(C)C[C@@H](NCC(=O)O)C(=O)N[C@@H](Cc1ccccc1)C(=O)NCc1ccc(CN)cc1 [Example 28, {(R)-1-[(S)-1-(4-Aminomethyl-benzylcarbamoyl)-2-phenyl-ethylcarbamoyl]-3-methyl-butylamino}-acetic acid]
7 | > 10 | 1.2 | – | – | COC(=O)CN[C@H](CC1CCCCC1)C(=O)N[C@@H](Cc1ccccc1)C(=O)NCc1ccc(CN)cc1 [Example 46, {(R)-1-[(S)-1-(4-Aminomethyl-benzylcarbamoyl)-2-phenyl-ethylcarbamoyl]-2-cyclohexyl-ethylamino}-acetic acid methyl ester]
8 | > 10 | 2.1 | – | – | COC(=O)CN[C@H](CC1CCCCC1)C(=O)N[C@@H](Cc1ccccc1)C(=O)NCc1ccc(CN)cc1 [Example 47, {(R)-1-[(S)-1-(4-Aminomethyl-benzylcarbamoyl)-2-phenyl-ethylcarbamoyl]-2-cyclohexyl-ethylamino}-acetic acid methyl ester]
9 | > 10 | 4.7 | – | – | CN(CC(N)=O)[C@H](CC1CCCCC1)C(=O)N[C@@H](Cc1ccccc1)C(=O)NCc1ccc(CN)cc1 [Example 48, (R)-N-[(S)-1-(4-Aminomethyl-benzylcarbamoyl)-2-phenyl-ethyl]-2-(carbamoylmethyl-methyl-amino)-3-cyclohexyl-propionamide]
10 | > 10 | 2.2 | – | – | CN(CCO)[C@H](CC1CCCCC1)C(=O)N[C@@H](Cc1ccccc1)C(=O)NCc1ccc(CN)cc1 [Example 49, (R)-N-[(S)-1-(4-Aminomethyl-benzylcarbamoyl)-2-phenyl-ethyl]-3-cyclohexyl-2-[(2-hydroxy-ethyl)-methyl-amino]-propionamide]
11 | 5 | 4.3 | – | – | NCc1ccc(CNC(=O)[C@H](Cc2ccccc2)NC(=O)[C@@H](CC2CCCCC2)NCC(N)=O)cc1 [Example 50, (R)-N-[(S)-1-(4-Aminomethyl-benzylcarbamoyl)-2-phenyl-ethyl]-2-(carbamoylmethyl-amino)-3-cyclohexyl-propionamide]
12 | – | 10 | – | – | CCOc1ccc(C[C@@H](N)C(=O)N[C@@H](C(=O)NCc2ccc(CN)cc2)[C@@H](O)c2ccccc2)cc1 [Example 60, (R)-2-Amino-N-[(1R,2S)-1-(4-aminomethyl-benzylcarbamoyl)-2-hydroxy-2-phenyl-ethyl]-3-(4-ethoxy-phenyl)-propionamide]
13 | – | ≥ 10 | – | – | CCOc1ccc(C[C@@H](NC(=O)CC)C(=O)N[C@@H](C(=O)NCc2ccc(CN)cc2)[C@@H](O)c2ccccc2)cc1 [Example 62, (2R,3S)-N-(4-Aminomethyl-benzyl)-2-[(R)-3-(4-ethoxy-phenyl)-2-propionylamino-propionylamino]-3-hydroxy-3-phenyl-propionamide]
14 | – | ≥ 10 | – | – | CCOc1ccc(C[C@@H](NC(=O)CC)C(=O)N(CC)[C@@H](Cc2ccccc2)C(=O)NCc2ccc(CN)cc2)cc1 [Example 65, (S)-N-(4-Aminomethyl-benzyl)-2-{[(R)-3-(4-ethoxy-phenyl)-2-propionylamino-propionyl]-ethyl-amino}-3-phenyl-propionamide]
15 | 8.4 | 10 | – | – | CCOc1ccc(C[C@@H](C(=O)N[C@@H](Cc2ccccc2)C(=O)NCc2ccc(CN)cc2)N(C)C(=O)CC)cc1 [Example 66, (S)-N-(4-Aminomethyl-benzyl)-2-[(S)-3-(4-ethoxy-phenyl)-2-(methyl-propionyl-amino)-propionylamino]-3-phenyl-propionamide]
16 | – | – | > 10 | 0.861 | CCOc1ccc(C[C@@H](NC(=O)NCc2ccccc2)C(=O)N[C@@H](Cc2ccccc2)C(=O)NCc2ccc(CN)cc2)cc1 [Example 68, (R)-N-[(S)-1-(4-Aminomethyl-benzylcarbamoyl)-2-phenyl-ethyl]-2-(3-benzyl-ureido)-3-(4-ethoxy-phenyl)-propionamide]
17 | – | – | > 10 | 0.621 | CCOc1ccc(C[C@@H](NC(=O)Nc2ccccc2)C(=O)N[C@@H](Cc2ccccc2)C(=O)NCc2ccc(CN)cc2)cc1 [Example 69, (R)-N-[(S)-1-(4-Aminomethyl-benzylcarbamoyl)-2-phenyl-ethyl]-3-(4-ethoxy-phenyl)-2-(3-phenyl-ureido)-propionamide]
18 | – | – | > 10 | 0.545 | CCOc1ccc(C[C@@H](NC(=O)C2CC2)C(=O)N[C@@H](Cc2ccccc2)C(=O)NCc2ccc(CN)cc2)cc1 [Example 74, Cyclopropanecarboxylic acid [(R)-1-[(S)-1-(4-aminomethyl-benzylcarbamoyl)-2-phenyl-ethylcarbamoyl]-2-(4-ethoxy-phenyl)-ethyl]-amide]
19 | – | – | 3.6 | 0.452 | CCCCCC(=O)N[C@H](Cc1ccc(OCC)cc1)C(=O)N[C@@H](Cc1ccccc1)C(=O)NCc1ccc(CN)cc1 [Example 76, Hexanoic acid [(R)-1-[(S)-1-(4-aminomethyl-benzylcarbamoyl)-2-phenyl-ethylcarbamoyl]-2-(4-ethoxy-phenyl)-ethyl]-amide]
20 | – | – | > 10 | 1.96 | CCOc1ccc(C[C@@H](NC(=O)NC(C)C)C(=O)N[C@@H](Cc2ccccc2)C(=O)NCc2ccc(CN)cc2)cc1 [Example 77, (R)-N-[(S)-1-(4-Aminomethyl-benzylcarbamoyl)-2-phenyl-ethyl]-3-(4-ethoxy-phenyl)-2-(3-isopropyl-ureido)-propionamide]

Row | SMILES | IC50 ([1]; Table 12) [µM] | IC50 [2, 3] [µM] | IC50 ([1]; Table 13) [µM] | IC50 ([2]; substrate H-DPro-Phe-Arg-AFC) [µM]
21 | CCC(=O)N[C@H](Cc1ccc(C(F)(F)F)cc1)C(=O)N[C@@H](Cc1ccc(Cl)c(Cl)c1)C(=O)NCc1ccc(CN)cc1 [Example 19] | > 10 | 10 | – | –
